Results: article PMC3844902 (British Journal of Cancer, 2013)

Assay: Safety and tolerability
Type: in vivo, Japanese patients
Conditions: just after meals, in combination with erlotinib 150 mg QD

For `O=C1NC(=O)[C@@H](c2cn3c4c(cccc24)CCC3)[C@@H]1c1c[nH]c2ccccc12` [tivantinib], the “Recommended phase II dose (RP2D) of tivantinib” value (Japanese EMs) was 360 mg BID and the “Recommended phase II dose (RP2D) of tivantinib” value (Japanese PMs) was 240 mg BID.
